In patent US20120022294A1, “Axomadol or a Metabolite Thereof for Use in the Treatment of Irritable Bowel Syndrome” (priority 2010, published 2012):
Structures can show the parent of a compound that is named as a salt. Where two headings read alike, the source gives them in different places.

What was measured:
[1] = test system: isolated guinea pig ileum; experiment: twitch contractions (electrically induced) of the isolated guinea pig ileum; conditions: for IC50: Cavia porcellus; for threshold of reduction of electrically induced contractions: concentration-dependent; for % reversal by naloxone: naloxone 10^−6 M added after last application of test compound; for inhibitory effect reversed after addition of naloxone: opioid receptor antagonist naloxone 1 μM; for maximal reduction: twitch reaction remaining as % of pre-value at highest concentration
Description: It was investigated whether axomadol and (+)-O-demethyl axomadol are able to modulate gastrointestinal motility.
Male guinea pigs (PBW, Charles River, Kiβlegg, FRG) weighing 250-350 g were used for the study. The animals were kept under standard housing conditions: light/dark rhythm (06.00-18.00 h light, 18.00-6.00 h dark); room temperature 22±2° C., relative air humidity 55±5%; 15 air changes per hour, air movement <0.2 m/sec. The animals were given water and an exclusive diet of “Herilan RM 204” (Eggersmann Company, Rinteln/FRG) ad libitum. Before experimental preparation they were kept in groups of up to 5 animals in type IV Makrolon cages (Ebeco Company, Castrop-Rauxel, FRG). There were at least 4 days between delivery and testing.
Axomadol hydrochloride and (+)-O-demethyl axomadol hydrochloride were dissolved in aqua bidest. Final concentrations in the organ bath ranged from 10^−7 to 3.2·10^−4 M and from 10^−8 to 3.2·10^−5 M for axomadol hydrochloride and (+)-O-demethyl axomadol hydrochloride respectively (cumulative drug application). Naloxone (10^−6 M) was used as opioid antagonist.
A four-compartment organ bath (Dept. Biotechnology, Grunenthal GmbH) consisting of 20 ml acrylic glass compartments, organ supports and force transducers (F10 force transducers, Type 375, HSE, FRG) was used for the measurement of isometric contractions. The organ bath was filled and emptied by means of a semi-automatic dosing arrangement. All experiments were performed at […]. The nutrient solution was gassed with carbogen (95% O2/5% CO2)) both in the nutrient storage chamber and in the organ bath starting 30 min before the beginning and throughout the experiment.
The nutrient solution had the following composition:
Parameter: contraction force [g]
Guinea pigs were killed in CO2-atmosphere and the ileum was dissected free from adhering tissue, removed and suspended in the organ bath. After an incubation period of at least 30 min, isometric contractions (twitch reactions) were elicited by transmural stimulation pulses (duration 1 ms, amplitude 180 mA at 0.03 Hz; stimulator A310, WPI, FRG). A pre-tension of 1 g was applied to the preparations and constantly readjusted during the equilibration period (at least 30 minutes) while the nutrient was changed twice.
After having registered the pre-value, test compounds were added to the organ bath in cumulative concentration steps as indicated. The exposure time for each concentration was 6 minutes. After the last application of the test compound, the opioid-antagonist naloxone (10^−6 M) was added without previous wash out of the test compound.
1.5 Evaluation Data was calculated as the mean electrically stimulated contraction force during a period of 4 to 6 minutes after compound application and expressed as percentage of the pre-value. The mean contraction force during a period of 2 minutes before compound application was taken as pre-value. All results were expressed as means±s.e.m. of ≧4 single experiments. For determination of IC50 values, regression lines (y=f log x) were constructed and IC50 values with s.e.m. were calculated using a computer-assisted regression analysis program (Grünenthal GmbH). The reversal of the test compound's activity by the antagonist was determined according to the following equation:
with max. effect being: 100%−% reduction of pre-value of twitch reaction at highest dose of test compound.

[2] = test system: visceral hyperalgesia induced by rectal administration of mustard oil in mice; experiment: visceral hyperalgesia / mustard oil colitis in mice; type: in vivo
Excerpt: The effects of axomadol hydrochloride on visceral hyperalgesia were studied, which was induced by rectal administration of mustard oil in mice (according to Laird J M, Martinez-Caro L, Garcia-Nicas E, Cervero F. (2001) A new model of visceral pain and referred hyperalgesia in the mouse. Pain 92: 335-42). The typical visceral pain behaviour was quantified in three parameters: During the first minutes after mustard oil administration spontaneous visceral pain behaviour occurs. Following this period of spontaneous pain, referred allodynia and hyperalgesia can be quantified by means of von Frey filaments of different strength stimulating the abdomen of the mice.
Male NMRI mice (28-38 g body weight) from a commercial breeder (Iffa Credo, France) were used. The animals were housed under standardized conditions: light/dark cycle (06.00-18.00 h light, 18.00-06.00 h dark), room temperature 20-24° C., relative air humidity 35-70%, 15 air changes per hour, air movement <0.2 m/sec, tap water and standard diet ad libitum, macrolon type 4 cages with maximally 30 animals per cage. There were at least 5 days between delivery and start of the experiment.
Axomadol hydrochloride was dissolved in vehicle solution and injected intra-venously.
Doses: 0.464; 1.0; 2.15; 4.64; 10.0 mg/kg i.v. Administration volume: 10 ml/kg Vehicle solution: 0.9% NaCl solution (Fresenius, Bad Homburg, FRG) Mustard oil was dissolved in vehicle solution and administered intra-rectally Dose: 50 μl of a 3.5 Vol.−% solution per animal Vehicle solution: PEG 200
2.3.1 Induction of Colitis Animals were habituated to the test conditions for 20-30 min and stimulated with von Frey filaments onto the abdominal wall. 10 stimulations with von Frey filaments of 1, 4, 8, 16, and 32 mN were applied in ascending order (i.e. 10×1 mN, 10×4 mN, etc.). Animals with more than 25 positive reactions during this phase were excluded. Vaseline was applied in the perianal area to avoid the stimulation of somatic areas with the irritant chemical. Colitis is induced by rectal administration of 50 μl mustard oil (3.5%). Control animals are treated with vehicle (50 μl PEG200).
Axomadol hydrochloride or vehicle was given intravenously (i.v.) 5 min before mustard oil. Seven animals were tested per group. The following parameters were counted:
2-12 min after mustard oil: • 1. Spontaneous pain score: counting and scoring of visceral pain behaviours (Score 1-2, 1=licking of abdominal wall, 2=stretching, squashing, mounting, backward-movement or contraction of the flank muscles). 20-40 min after mustard oil • 2. […]
Data were analysed by means of two-factor analysis of variance (ANOVA) with repeated measures. Significance of treatment-, time- or treatment x time interaction effects was analyzed by means of Wilks' Lambda statistics. […]

[3] = isolated guinea pig ileum, mean ± s.e.m., read-out: IC50 value, reduction of electrically induced contractions
[4] = twitch contractions of the guinea pig ileum, cumulative application, read-out: IC50

SMILES | IC50 [1, 3] [µM] | IC50 [1, 4] [µM] | twitch reactions, reduction to % of pre-value ([1]; increasing concentrations up to 320 μM) | threshold of reduction of electrically induced contractions ([1]; isolated guinea pig ileum) | % reversal by naloxone [1] [%] | inhibitory effect reversed after addition of naloxone [1] [%] | maximal reduction [1] [% pre-value] | inhibition of all three visceral pain parameters ([2]; 0.464, 1.0, 2.15, 4.64 and 10.0 mg/kg i.v.) | ED50 (95% confidence intervals), referred allodynia ([2]; i.v. 5 min before mustard oil, 1 mN von Frey filament, 20-40 min after mustard oil) | ED50 (95% confidence intervals), spontaneous visceral pain behaviour ([2]; i.v. 5 min before mustard oil, 2-12 min after mustard oil) | ED50 (95% confidence intervals), referred hyperalgesia ([2]; i.v. 5 min before mustard oil, 16 mN von Frey filament, 20-40 min after mustard oil) | twitch reactions, reduction to % of pre-value ([1]; increasing concentrations up to 32 μM)
COc1cccc([C@@]2(O)C[C@H](O)CC[C@@H]2CN(C)C)c1 (racemic) [axomadol hydrochloride, (1RS,3RS,6RS)-6-dimethylaminomethyl-1-(3-methoxyphenyl)-cyclohexane-1,3-diol] | 39.2 ± 2.8 | 39.2 ± 2.8 | 32.1 % of pre-value | around 10 μM | 83.4 | 83.4 | 32.1 | dose dependent and significant inhibition | 6.13 (5.56-6.60-4.75) mg/kg i.v. | 2.62 (1.79-4.05) mg/kg i.v. | 2.72 (1.58-5.46) mg/kg i.v. | –
CN(C)CC1CCC(O)CC1(O)c1cccc(O)c1 (single isomer, unassigned; (+)) [(+)-O-demethyl axomadol hydrochloride, 6-dimethylaminomethyl-1-(3-hydroxyphenyl)-cyclohexane-1,3-diol] | 0.43 ± 0.09 | 0.43 ± 0.09 | – | around 0.032 μM | 69.1 | 69.1 | 16.6 | – | – | – | – | 16.6±3 % of pre-value
